# Laboratory results published in patent US11466044B2 (WAYNE STATE UNIVERSITY, priority 2017, dated 2022).
# Read-outs that look alike come from different tables or passages of the source.
# Legend:
# [1] = tested on: E coli carrying specific resistance determinants; assay: MIC by broth microdilution, E coli carrying specific resistance determinants; assay type: cell-based; details: for MIC AG003 E. coli AAC(3)-II: clinical isolate AG003, AAC(3)-II
# [2] = tested on: rabbit reticulocyte ribosomes; assay: in-vitro translation assay, rabbit reticulocyte ribosomes; assay type: biochemical; details: mammalian cytosolic ribosomes (rabbit)
# MRSA = assay: MIC by broth microdilution, MRSA isolates; assay type: cell-based; details: for MIC AG038 MRSA: clinical isolate AG038; for MIC AG039 MRSA AAC(6′)-I ANT(4′)-I: clinical isolate AG039, AAC(6′)-I ANT(4′)-I; for MIC AG042 MRSA AAC(6′)-I ANT(4′)-I APH(2′): clinical isolate AG042, AAC(6′)-I ANT(4′)-I APH(2′); for MIC AG044 MRSA: clinical isolate AG044
# E coli wild type = assay: MIC by broth microdilution, wild type E coli; assay type: cell-based; details: for MIC AG001 E. coli WT: clinical isolate AG001, WT; for MIC AG055 E. coli WT: clinical isolate AG055, WT
# [3] = tested on: mitochondrial ribosome (human chimeric); assay type: biochemical
# Text: (§1) The antiribosomal activity of these compounds was investigated with cell-free translation assays using both wild type bacterial ribosomes and hybrid ribosomes carrying eukaryotic decoding A sites enabling the prediction of selectivity.
# [4] = tested on: A1555G mutant mitochondrial ribosome (human chimeric); assay: in-vitro translation assay, human chimeric ribosomes, A1555G mutant mitochondrial decoding site; assay type: biochemical; details: human mitochondrial decoding site with A1555G point mutation; read-out: IC50 Mitoch. A1555G
# Text: as §1
# [5] = tested on: wild type bacterial ribosomes; assay: in-vitro translation assay, bacterial ribosomes; assay type: biochemical
# Text: as §1
# M. smegmatis SZ380 = assay: MIC by broth microdilution, M. smegmatis; details: strain SZ380 Mycobacterium smegmatis
# [6] = tested on: Enterobacter cloacae AG290; assay: MIC by broth microdilution, Enterobacter cloacae; assay type: cell-based; details: strain AG290 Enterobacter cloacae
# [7] = tested on: cytosolic ribosome (human chimeric); assay type: biochemical
# Text: as §1
# P aeruginosa = assay: MIC by broth microdilution, P aeruginosa isolates; assay type: cell-based, Pseudomonas aeruginosa
# [8] = tested on: Klebsiella pneumonia AG215; assay: MIC by broth microdilution, Klebsiella pneumonia; assay type: cell-based; details: strain AG215 Klebsiella pneumonia
# [9] = tested on: Acinetobacter baumannii pittii AG225; assay: MIC by broth microdilution, Acinetobacter baumannii; assay type: cell-based; details: strain AG225 Acinetobacter baumannii pittii
# [10] = ribosomes with a human mitochondrial decoding site, read-out: IC50 Mitoch.
# [11] = Mycobacterium smegmatis ribosomes, read-out: IC50 Bacterial
smiles,measurement,setting,value
NC[C@H]1O[C@H](O[C@H]2[C@H](O[C@@H]3O[C@H](CN)[C@@H](O)[C@H]3O)[C@@H](O)[C@H](N)C[C@@H]2N)[C@H](N)[C@@H](O)[C@@H]1O [DC048],MIC AG003 E. coli AAC(3)-II,[1],16 µg/mL
same,IC50,[2],50 µM
same,MIC AG038 MRSA,MRSA,8 µg/mL
same,MIC AG039 MRSA AAC(6′)-I ANT(4′)-I,MRSA,>64 µg/mL
same,MIC AG042 MRSA AAC(6′)-I ANT(4′)-I APH(2′),MRSA,>128 µg/mL
same,MIC AG044 MRSA,MRSA,8 to 16 µg/mL
same,MIC AG001 E. coli WT,E coli wild type,32 to 64 µg/mL
same,MIC AG055 E. coli WT,E coli wild type,32 µg/mL
same,IC50,[3]; [10],76 µM
same,IC50,[4],34 µM
same,IC50,[5]; [11],0.09 µM
"NC[C@@H]1O[C@H](O[C@H]2[C@@H](O)[C@H](O[C@@H]3[C@@H](O)[C@H](N)C[C@H](N)[C@H]3O[C@H]3O[C@H](CO)[C@@H](O)C[C@H]3N)O[C@@H]2CO)[C@H](N)[C@@H](O)[C@@H]1O [Lividomycin B, lividomycin B, reference compound]",MIC E coli AG007 ANT(3″) AAC(3)-I,"[1]; AG007 ANT(3″) AAC(3)-I, Table 2 (Example 1)",4 µg/mL
same,MIC E coli AG103 ArmA,"[1]; AG103 ArmA, Table 2 (Example 1)",16 µg/mL
same,MIC E coli AG163/164 APH(3′)-Ia,"[1]; AG163/164 APH(3′)-Ia, Table 2 (Example 1)",>128 µg/mL
same,MIC E coli AG166 APH(3′)-IIa,"[1]; AG166 APH(3′)-IIa, Table 2 (Example 1)",4 to 8 µg/mL
same,MIC APH(3)-VI,"[1]; APH(3)-VI, Table 3 (Example 1)",2 µg/mL
same,MIC APH(3′)-I,"[1]; APH(3′)-I, Table 3 (Example 1)",>64 µg/mL
same,MIC APH(3′)-II,"[1]; APH(3′)-II, Table 3 (Example 1)",2 µg/mL
same,MIC APH(3′)-III,"[1]; APH(3′)-III, Table 3 (Example 1)",>64 µg/mL
same,MIC AG003 E. coli AAC(3)-II,[1],4 µg/mL
same,MIC AG163 E. coli APH(3′)-I,"[1]; clinical isolate AG163 APH(3′)-I, Table 2 (Example 4)",>128 µg/mL
same,MIC AG166 E. coli APH(3′)-II,"[1]; clinical isolate AG166 APH(3′)-II, Table 2 (Example 4)",4 to 8 µg/mL
same,MIC AG037 E. coli APH(3′)-III,"[1]; engineered strain AG037 APH(3′)-III, Table 2 (Example 4)",>128 µg/mL
same,MIC pH421 E. coli APH(3′)-I,"[1]; engineered strain pH421 APH(3′)-I, Table 2 (Example 4)",>64 μg/ml
same,MIC pH422 E. coli APH(3′)-II,"[1]; engineered strain pH422 APH(3′)-II, Table 2 (Example 4)",2 μg/ml
same,MIC pH423 E. coli APH(3′)-VI,"[1]; engineered strain pH423 APH(3′)-VI, Table 2 (Example 4)",2 μg/ml
same,IC50,[2],25 µM
same,MIC SZ380 M. smegmatis,M. smegmatis SZ380,0.5 µg/mL
same,MIC AG290 E. cloacae,[6],2 µg/mL
same,MIC AG038 MRSA,MRSA,4 µg/mL
same,MIC AG039 MRSA AAC(6′)-I ANT(4′)-I,MRSA,>128 µg/mL
same,MIC AG042 MRSA AAC(6′)-I ANT(4′)-I APH(2′),MRSA,>128 µg/mL
same,MIC AG044 MRSA,MRSA,4 to 8 µg/mL
same,MIC50 MRSA AG38,"MRSA; strain AG38, Table 1 (Example 1)",4 µg/mL
same,MIC50 MRSA AG39,"MRSA; strain AG39, Table 1 (Example 1)",>128 µg/mL
same,MIC50 MRSA AG42,"MRSA; strain AG42, Table 1 (Example 1)",>128 µg/mL
same,MIC50 MRSA AG44,"MRSA; strain AG44, Table 1 (Example 1)",4 to 8 µg/mL
same,MIC E coli AG006 wt,"E coli wild type; AG006 wt, Table 2 (Example 1)",1 to 2 µg/mL
same,MIC E coli AG102 wt,"E coli wild type; AG102 wt, Table 2 (Example 1)",2 µg/mL
same,MIC E coli AG160 wt,"E coli wild type; AG160 wt, Table 2 (Example 1)",4 µg/mL
same,MIC WT,"E coli wild type; WT, Table 3 (Example 1)",2 µg/mL
same,MIC AG001 E. coli WT,E coli wild type,4 µg/mL
same,MIC AG055 E. coli WT,E coli wild type,2 µg/mL
same,MIC AG160 E. coli WT,"E coli wild type; clinical isolate AG160 WT, Table 2 (Example 4)",4 µg/mL
same,MIC pH430 E. coli WT,"E coli wild type; engineered strain pH430 WT, Table 2 (Example 4)",2 μg/ml
same,MIC50 E coli AG01,"E coli wild type; strain AG01, Table 1 (Example 1)",16 µg/mL
same,MIC50 E coli AG03,"E coli wild type; strain AG03, Table 1 (Example 1)",8 to 16 µg/mL
same,MIC50 E coli AG55,"E coli wild type; strain AG55, Table 1 (Example 1)",16 µg/mL
same,MIC AG212 E. coli,E coli wild type; strain AG212 E. coli (ATCC25922),4 µg/mL
same,IC50,"[3]; mitochondrial, Table 3 (Example 1), read-out: IC50 Mit",109 µM
same,IC50,[3]; [10],109 µM
same,IC50,"[7]; cytosolic, Table 3 (Example 1), read-out: IC50 Cyt",53 µM
same,IC50,"[7]; ribosomes with a human cytosolic decoding site, read-out: IC50 Cytosolic",53 µM
same,IC50,[5]; [11],0.04 µM
same,IC50,"[5]; bacterial ribosome, Table 3 (Example 1), read-out: IC50 Bac",0.04 µM
same,MIC AG031 P. aer. APH(3′)-II,"P aeruginosa; clinical isolate AG031, APH(3′)-II",16 µg/mL
same,MIC AG032 P. aer. APH(3′)-II,"P aeruginosa; clinical isolate AG032, APH(3′)-II",>128 µg/mL
same,MIC50 P aeruginosa AG31,"P aeruginosa; strain AG31, Table 1 (Example 1)",16 µg/mL
same,MIC50 P aeruginosa AG32,"P aeruginosa; strain AG32, Table 1 (Example 1)",>128 µg/mL
same,MIC50 P aeruginosa AG33,"P aeruginosa; strain AG33, Table 1 (Example 1)",128 µg/mL
same,MIC50 P aeruginosa AG86,"P aeruginosa; strain AG86, Table 1 (Example 1)",128 µg/mL
same,MIC AG220 P. aerugin,P aeruginosa; strain AG220 Pseudomonas aeruginosa ATCC27853,4 µg/mL
same,MIC AG215 K. pneumon,[8],2 µg/mL
same,MIC AG225 A. baumannii,[9],4 µg/mL
